Measured values taken from US6040149A, “Assay for identifying agents which act on the ceramide-activated protein kinase, kinase suppressor of ras, and methods of using said agents” (priority 1997, dated 2000).

How the values were obtained:
[1] = biological target: T1, KSR (Mus musculus, UniProt Q61097); test: KSR autophosphorylation in vitro; type: biochemical, mouse (KSR immunoprecipitated from COS-7 cells); set-up: Raf-1 peptides as substrate
T1 sequence (Q61097 1-873): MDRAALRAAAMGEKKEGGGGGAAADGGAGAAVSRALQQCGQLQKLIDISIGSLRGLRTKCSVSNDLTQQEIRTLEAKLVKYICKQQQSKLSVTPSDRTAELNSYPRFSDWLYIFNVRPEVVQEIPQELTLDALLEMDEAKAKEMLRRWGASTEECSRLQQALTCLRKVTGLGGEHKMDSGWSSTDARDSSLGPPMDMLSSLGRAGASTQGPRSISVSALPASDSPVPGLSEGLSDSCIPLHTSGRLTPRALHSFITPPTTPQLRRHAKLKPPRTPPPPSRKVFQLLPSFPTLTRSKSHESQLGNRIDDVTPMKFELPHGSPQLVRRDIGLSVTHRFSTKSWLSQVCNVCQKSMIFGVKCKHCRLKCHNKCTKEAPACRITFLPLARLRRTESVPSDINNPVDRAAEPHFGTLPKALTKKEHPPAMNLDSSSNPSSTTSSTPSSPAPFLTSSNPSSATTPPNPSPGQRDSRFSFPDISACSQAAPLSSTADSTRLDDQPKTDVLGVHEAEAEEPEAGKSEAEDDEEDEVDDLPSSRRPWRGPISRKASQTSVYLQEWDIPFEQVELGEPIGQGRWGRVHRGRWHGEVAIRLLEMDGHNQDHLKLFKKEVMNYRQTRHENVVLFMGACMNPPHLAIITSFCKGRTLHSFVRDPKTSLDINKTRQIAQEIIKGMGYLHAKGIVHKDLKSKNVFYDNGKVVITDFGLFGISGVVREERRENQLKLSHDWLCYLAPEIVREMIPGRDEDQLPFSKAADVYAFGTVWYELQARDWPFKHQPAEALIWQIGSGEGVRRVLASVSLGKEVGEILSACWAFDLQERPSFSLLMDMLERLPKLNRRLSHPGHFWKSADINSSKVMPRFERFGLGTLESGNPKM
Description: Phosphorylated KSR was resolved and detected as in FIG. 2A.
KSR was immunoprecipitated as above from 0.8 mg NP-40 lysate protein with 40 μl agarose-conjugated anti-Flag antibody at 4° C. for 4 hrs or overnight. […] The reaction was stopped by addition of Laemmli sample buffer. Samples were resolved by 7.5% sodium dodecyl sulfate-polyacrylamide gel electrophoresis (SDS-PAGE) and autoradiographed.

[2] = test system: neutral sphingomyelinase; test: Sphingomyelin and ceramide concentrations in a cell-free system (HL-60 nuclei-free supernate); type: biochemical, human (HL-60 cells)
Description: TNF-α effects on sphingomyelin (A) and ceramide (B) concentrations in a cell-free system. HL-60 cells were grown in RPMI 1640 medium supplemented with 10% bovine calf serum and amino acids. To measure sphingomyelin, cells were resuspended (1×10^6 ml^-1), labeled for 48 hours in medium with [^3 H]choline (1 μCi ml^-1), in serum-free medium containing bovine insulin (5 μg ml^-1) and human transferrin (5 μg ml^-1). After 3 hours, cells were resuspended (150×10^6 ml^-1) in homogenization buffer (50 mM NaF, 5 mM EGTA, and 25 mM Hepes, pH 7.4), disrupted at 4° C. with 150 strokes of a tight-fitting Dounce homogenizer (Fisher Scientific, Pittsburgh, Pa.), and centrifuged for 5 minutes (500 g). The nuclei-free supernate was first incubated for 5 minutes at 4° C. with 30 nM human TNF-α (Genentech, South San Francisco, Calif.) or diluent (50 mM Hepes, pH 7.4). At time zero, 15 μl of supernate (112 μg per incubation) were added to a reaction mixture containing 30 μl of 25 mM Hepes, pH 7.4, 30 μl of 750 μM ATP, and 75 μl of reaction buffer (50 mM Hepes, pH 7.4 and 20 mM MgCl2) at 22° C. The reaction was terminated with CHCl3 :CH3 OH:HCl (100:100:1, v/v/v) and 150 μl of balanced salt solution (135 mM NaCl, 4.5 mM KCl, 1.5 mM CaCl2, 0.5 mM MgCl2, 5.6 mM glucose, and 10 mM Hepes, pH 7.2) containing 20 mM EDTA. Lipids in the organic phase extract were subjected to alkaline methanolysis to remove glycerophospholipids. Sphingomyelin recovery in the nuclei-free supernate was 93% of that in intact cells. A measure of 10^6 cell equivalents of supernate contained 50 μg of protein. Sphingomyelin was resolved by thin-layer chromatography (TLC) with CHCl3 :CH3 OH:CH3 COOH:H2 O (25:15:4:1.5) as solvent, identified by iodine vapor staining and quantified by liquid scintillation spectrometry. Ceramide was quantified with the diacylglycerol kinase reaction. Values (mean) are derived from triplicate determinations from one experiment representative of three similar studies for sphingomyelin and four similar studies for ceramide.
The binding of TNF-α to its receptor is detectable within 2 minutes and maximal by 5 to 10 minutes at 4° C. in membranes derived from HL-60 cells. Therefore, supernates from HL-60 cells, collected after a low-speed centrifugation to remove nuclei, were first incubated with TNF-α for 5 minutes at 4° C. to allow the formation of TNF-receptor complexes. Thereafter, reactions were initiated by warming supernates to 22° C. in a reaction mixture containing adenosine triphosphate (ATP) and Mg^2+ at pH 7.4.
These conditions were adopted to allow for activation of neutral sphingomyelinase. Under these conditions, TNF-α induced a time- and concentration-dependent reduction in sphingomyelin content (FIG. 9A). The effect of TNF-α was evident at 1 minute and maximal by 7.5 minutes. Sphingomyelin concentrations decreased 27% from a control concentration of 10.4±0.5 (mean±SEM) to 7.6±0.2 nmol per milligram (nmol mg^-1) of supernate protein (P<0.001). […] Concentrations of TNF-α of 300 pM were effective, with a maximal effect at 3 nM TNF-α [effective dose (ED50)≈500 pM]. Under the same conditions, ceramide increased quantitatively from 1.8±0.3 to 4.0±0.5 nmol mg^-1 (FIG. 9B). This effect was detectable at 1 minute (P<0.001) and maximal by 7.5 minutes. Thus, 2.8 nmol of sphingomyelin per milligram of supernate protein were lost for each 2.2 nmol of ceramide per milligram of supernate protein that was generated. […] Other choline-containing lipids, including phosphatidyl-choline, lysophosphatidylcholine, sphingosylphosphorylcholine, and 1,2-diacylglycerol were not affected by TNF-α.

Molecule	effect on activation of KSR [1]	effect on other choline-containing lipids and 1,2-diacylglycerol ([2]; TNF-α)	decrease in sphingomyelin concentration ([2]; TNF-α 30 nM, cell-free) [%]	ceramide generated ([2]; TNF-α, cell-free)	sphingomyelin lost ([2]; TNF-α, cell-free)	sphingomyelin concentration ([2]; after TNF-α, control 10.4±0.5, mean±SEM, P<0.001)	ceramide concentration ([2]; after TNF-α, from 1.8±0.3) [nmol/mg]	ED50 (sphingomyelin reduction) ([2]; cell-free)	concentration of maximal effect (sphingomyelin reduction) ([2]; cell-free) [nM]	effective concentration (sphingomyelin reduction) ([2]; cell-free) [pM]	onset of sphingomyelin reduction ([2]; cell-free) [min]	time to maximal ceramide increase ([2]; cell-free) [min]	time to maximal sphingomyelin reduction ([2]; cell-free) [min]	onset of ceramide increase ([2]; cell-free, P<0.001) [min]
CCCCCCCCCCCCCC(=O)O[C@@H]1[C@@H](C)[C@@]2(O)[C@@H](C=C(CO)C[C@]3(O)C(=O)C(C)=C[C@@H]23)[C@@H]2C(C)(C)[C@]12OC(C)=O [TPA, 12-0-tetradecanoylphorbol-13-acetate]	no effect	–	–	–	–	–	–	–	–	–	–	–	–	–
TNF-α	–	not affected	27	2.2 nmol per milligram of supernat	2.8 nmol per milligram of supernat	7.6±0.2 nmol per milligram (nmol mg^-1) of supernate protein	4.0 ± 0.5	≈ 500 pM	3	300	1	≤ 7.5	≤ 7.5	1
